Data published in patent US20240316028A1, “[…] FORMULATIONS AND THEIR USES” (priority 2023, published 2024).
Structures can show the parent of a compound that is named as a salt.

Legend:
[1] = type: physicochemical
Experimental: All excipients used in the formulations were compatible with physostigmine before and after eBeam of 25 kGy. NaOH was used to adjust the cream pH and was added before mixing with physostigmine.

[2] = thermal and photolytic conditions

CNC(=O)Oc1ccc2c(c1)[C@]1(C)CCN(C)[C@@H]1N2C [Physostigmine Salicylate]
Total Impurities Pre eBeam ([1]; Table 13): 0.11 | Total Impurities Post eBeam T0 ([1]; Table 13, eBeam 25 kGy): 0.15

CN1[C@@H]2CC[C@H]1C[C@@H](OC(=O)C(CO)c1ccccc1)C2 (stereo partly drawn) [atropine sulfate]
thermal and photolytic degradation [2]: No significant variation
